Reference: US20040209776A1, “Azole derivatives useful as insecticide” (priority 2001, published 2004)
Each block holds one molecule with its values, some of them ahead of it.

Legend:
[1] = system: Myzus persicae; test: Pest mortality test against peach potato aphids, infested Chinese cabbage leaves sprayed; format: in vivo; conditions: 72 h, 500 ppm by weight, sprayed on infested Chinese cabbage leaves, mortality assessed after three days, read-out: Mp mortality (score)
Procedure: (§1) This Example illustrates the pesticidal/insecticidal properties of compounds of formula (I). The activities of individual compounds of formula (I) were determined using a variety of pests. The pests were treated with a liquid composition containing 500 parts per million (ppm) by weight of a compound of formula (I). Each composition was made by dissolving the compound in an acetone and ethanol (50:50 by volume) mixture and diluting the solution with water containing 0.05% by volume of a wetting agent, SYNPERONIC NP8, until the liquid composition contained the required concentration of the compound. SYNPERONIC is a registered trade mark.
(§2) The test procedure adopted with regard to each pest was essentially the same and comprised supporting a number of the pests on a medium, which was usually a substrate, a host plant or a foodstuff on which the pests feed, and treating either or both the medium and the pests with a composition. Pest mortality was assessed usually between two and five days after treatment.
In each test against peach potato aphids (Myzus persicae), Chinese cabbage leaves were infested with aphids, the infested leaves were sprayed with a test composition and pest mortality was assessed after three days.

[2] = system: Diabrotica balteata; test: Pest mortality test against corn root worm; format: in vivo; conditions: 120 h, 500 ppm by weight, mortality assessed usually between two and five days after treatment, read-out: Db mortality (score)
Procedure: as §1, §2
(§3) Similar tests were conducted against, independently, two-spotted spider mites (Tetranychus urticae), fruit flies (Drosophila melanogaster), tobacco budworms (Heliothis virescens), diamond back moth (Plutella xylostella) and corn root worm (Diabrotica balteata).

[3] = system: Plutella xylostella; test: Pest mortality test against diamond back moth; format: in vivo; conditions: 120 h, 500 ppm by weight, mortality assessed usually between two and five days after treatment, read-out: Px mortality (score)
Procedure: as §1, §2, §3

[4] = system: Drosophila melanogaster; test: Pest mortality test against fruit flies; format: in vivo; conditions: 120 h, 500 ppm by weight, mortality assessed usually between two and five days after treatment, read-out: Dm mortality (score)
Procedure: as §1, §2, §3

[5] = system: Meloidogyne incognita; test: In vitro test against root knot nematodes suspended in liquid composition; format: in vivo; conditions: 12.5 ppm by weight, no SYNPERONIC NP8, read-out: Mi mortality (score)
Procedure: as §1
Tests were also conducted against root knot nematodes (Meloidogyne incognita) using an in vitro test in which nematodes were suspended in a liquid composition which had been prepared as described above except that it contained a concentration of 12.5 ppm by weight of a compound of formula (I) and it contained no SYNPERONIC NP8.

[6] = system: Heliothis virescens; test: Pest mortality test against tobacco budworms; format: in vivo; conditions: 120 h, 500 ppm by weight, mortality assessed usually between two and five days after treatment, read-out: Hv mortality (score)
Procedure: as §1, §2, §3

Structure (SMILES): CCc1nsc(NC(=O)C(C)c2ccc3oc(-c4c(F)cccc4Cl)nc3c2)c1Cl (stereo not shown) [Compound 1, N-(4-chloro-3-ethylisothiazol-5-yl)-2-[2-(2-chloro-6-fluorophenyl)benzoxazol-5-yl]propionamide]
mortality at 500 ppm [1]: 80 to 100%
mortality at 500 ppm [2]: 80 to 100%
mortality at 500 ppm [3]: 80 to 100%
mortality at 500 ppm [4]: 80 to 100%
mortality at 12.5 ppm [5]: < 40%
mortality at 500 ppm [6]: 80 to 100%

melting point: 158 to 161 °C
Structure (SMILES): Cc1nsc(NC(=O)C(C)c2ccc3oc(-c4cccc(Cl)c4Cl)nc3c2)c1Cl (stereo not shown) [Compound 11, N-(4-chloro-3-methylisothiazol-5-yl)-2-[2-(2,3-dichlorophenyl)benzoxazol-5-yl]propionamide]
